In experiment [1] the target is T1, STEAP2 (Homo sapiens, UniProt Q8NFT2).
T1 construct: full-length (490 residues), C-terminal His6-tag cleaved by TEV protease; High Five or Sf9 insect cells; LMNG or GDN; homotrimer
T1 sequence (Q8NFT2 1-490): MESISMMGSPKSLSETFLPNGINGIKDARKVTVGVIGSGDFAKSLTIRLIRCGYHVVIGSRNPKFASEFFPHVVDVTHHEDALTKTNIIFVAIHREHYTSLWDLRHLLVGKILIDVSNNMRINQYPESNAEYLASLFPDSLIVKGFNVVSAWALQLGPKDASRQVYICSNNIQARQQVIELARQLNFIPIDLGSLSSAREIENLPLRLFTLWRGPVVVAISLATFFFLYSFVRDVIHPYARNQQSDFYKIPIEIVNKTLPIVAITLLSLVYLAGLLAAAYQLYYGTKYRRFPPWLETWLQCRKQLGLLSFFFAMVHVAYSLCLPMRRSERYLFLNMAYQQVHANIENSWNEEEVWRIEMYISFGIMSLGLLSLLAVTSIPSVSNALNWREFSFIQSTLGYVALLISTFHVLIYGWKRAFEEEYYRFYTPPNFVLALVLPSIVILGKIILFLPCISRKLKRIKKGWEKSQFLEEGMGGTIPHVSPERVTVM
As to the kind of experiment: cryo-EM structure, […] Å. It counts as binding.

Experiment [2] addresses T2, cytochrome b5 reductase (b5R) (Mus musculus, UniProt Q9DCN2).
T2 construct: gene Cyb5r3
T2 sequence (Q9DCN2 24-301): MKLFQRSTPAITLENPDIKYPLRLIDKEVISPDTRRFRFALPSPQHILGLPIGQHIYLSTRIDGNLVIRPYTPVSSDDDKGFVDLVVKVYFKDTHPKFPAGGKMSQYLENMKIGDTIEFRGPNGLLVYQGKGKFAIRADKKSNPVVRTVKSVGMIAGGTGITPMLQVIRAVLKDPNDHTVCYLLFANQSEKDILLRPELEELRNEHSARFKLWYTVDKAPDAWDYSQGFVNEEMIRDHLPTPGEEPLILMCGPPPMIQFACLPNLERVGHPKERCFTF
As to the kind of experiment: rapid-scan stopped-flow FAD reduction. Conditions: anaerobic, 1.5 μM b5R with 1.5 μM STEAP1 and 10 μM NADH. It counts as biochemical.

Turning to `Cc1cc2nc3c(=O)[nH]c(=O)nc-3n(C[C@H](O)[C@H](O)[C@H](O)COP(=O)(O)OP(=O)(O)OC[C@H]3O[C@@H](n4cnc5c(N)ncnc54)[C@H](O)[C@@H]3O)c2cc1C` [FAD], the “cryo-EM structure, 3.2 Å” value in experiment [1] (complex with NADP+ and heme, extended conformation, isoalloxazine ring in TMD, adenine stacks on Trp152 of OxRD) is “Heme, FAD, and NADP^+ are unambiguously resolved in the density map”.
With `NC(=O)C1=CN([C@@H]2O[C@H](COP(=O)(O)OP(=O)(O)OC[C@H]3O[C@@H](n4cnc5c(N)ncnc54)[C@H](O)[C@@H]3O)[C@@H](O)[C@H]2O)C=CC1` [NADH], the “rapid-scan stopped-flow FAD reduction” value in experiment [2] was “intermediate B is due to fast FAD reduction in b5R by NADH”.
For the molecule `NC(=O)c1ccc[n+]([C@@H]2O[C@H](COP(=O)(O)OP(=O)(O)OC[C@H]3O[C@@H](n4cnc5c(N)ncnc54)[C@H](OP(=O)(O)O)[C@@H]3O)[C@@H](O)[C@H]2O)c1` [NADP^+], the “cryo-EM structure, 3.2 Å” value in experiment [1] (complex with FAD and heme, OxRD site) is “Heme, FAD, and NADP^+ are unambiguously resolved in the density map”.

The values above are taken from publication PMC10659578, “Mechanism of stepwise electron transfer in six-transmembrane epithelial antigen of the prostate (STEAP) 1 and 2” (eLife, 2023).
